Measured values published in the kinase profiling compilation of Christmann-Franck et al. (2016).

Legend:
Assay in all cases: KINOMEscan competition binding
Settings in all cases: compound 10.0 µM
CDK4 CCND1 (human) = CDK4 CCND1 (human) (UniProt P11802+P24385)
CDKL1 (human) = CDKL1 (human) (UniProt Q00532)
CDKL3 (human) = CDKL3 (human) (UniProt Q8IVW4)
CDKL5 (human) = CDKL5 (human) (UniProt O76039)
DDR1 (human) = DDR1 (human) (UniProt Q08345)
DSTYK (human) = DSTYK (human) (UniProt Q6XUX3)
DYRK2 (human) = DYRK2 (human) (UniProt Q92630)
DYRK2 (human), sequence (Q92630 whole entry, looked up): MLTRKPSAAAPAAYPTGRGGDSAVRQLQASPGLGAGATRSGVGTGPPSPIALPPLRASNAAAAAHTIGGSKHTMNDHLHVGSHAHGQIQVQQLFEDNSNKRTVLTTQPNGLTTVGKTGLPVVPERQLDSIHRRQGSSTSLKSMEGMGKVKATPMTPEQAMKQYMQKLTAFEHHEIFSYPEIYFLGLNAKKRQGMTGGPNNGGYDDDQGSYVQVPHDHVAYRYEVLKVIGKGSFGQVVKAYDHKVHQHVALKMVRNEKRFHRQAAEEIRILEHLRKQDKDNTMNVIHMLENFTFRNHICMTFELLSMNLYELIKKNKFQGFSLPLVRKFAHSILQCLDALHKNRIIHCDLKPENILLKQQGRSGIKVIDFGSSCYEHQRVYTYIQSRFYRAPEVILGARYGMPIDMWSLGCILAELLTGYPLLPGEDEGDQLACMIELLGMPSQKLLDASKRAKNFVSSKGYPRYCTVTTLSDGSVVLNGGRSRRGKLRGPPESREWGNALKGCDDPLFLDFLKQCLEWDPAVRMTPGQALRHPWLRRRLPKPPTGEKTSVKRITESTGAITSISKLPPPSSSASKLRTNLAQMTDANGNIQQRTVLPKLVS

EIF2AK1 (human) = EIF2AK1 (human) (UniProt Q9BQI3)
EIF2AK1 (human), sequence (Q9BQI3 whole entry, looked up): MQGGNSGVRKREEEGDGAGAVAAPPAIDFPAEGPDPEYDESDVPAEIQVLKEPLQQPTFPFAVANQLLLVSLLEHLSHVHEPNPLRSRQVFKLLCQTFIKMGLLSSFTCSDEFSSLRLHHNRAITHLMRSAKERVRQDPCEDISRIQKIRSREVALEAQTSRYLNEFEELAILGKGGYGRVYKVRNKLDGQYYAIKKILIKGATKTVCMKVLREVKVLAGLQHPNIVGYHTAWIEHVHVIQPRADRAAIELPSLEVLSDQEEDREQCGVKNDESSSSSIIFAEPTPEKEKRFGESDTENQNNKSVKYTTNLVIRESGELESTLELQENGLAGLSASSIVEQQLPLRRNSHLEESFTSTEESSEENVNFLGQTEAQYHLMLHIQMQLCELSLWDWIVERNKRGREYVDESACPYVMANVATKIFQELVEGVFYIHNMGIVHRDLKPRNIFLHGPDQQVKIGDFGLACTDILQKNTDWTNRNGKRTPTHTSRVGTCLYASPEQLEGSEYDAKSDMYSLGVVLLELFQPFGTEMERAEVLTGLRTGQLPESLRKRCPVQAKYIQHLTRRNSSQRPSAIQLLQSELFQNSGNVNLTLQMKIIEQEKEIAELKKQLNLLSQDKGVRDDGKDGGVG

EPHB6 (human) = EPHB6 (human) (UniProt O15197)
ERBB3 (human) = ERBB3 (human) (UniProt P21860)
ERN1 (human) = ERN1 (human) (UniProt O75460)
[1] = tested on: FLT3 (human), P36888 [K663Q]
HIPK3 (human) = HIPK3 (human) (UniProt Q9H422)
HIPK4 (human) = HIPK4 (human) (UniProt Q8NE63)
HUNK (human) = HUNK (human) (UniProt P57058)
ICK (human) = ICK (human) (UniProt Q9UPZ9)
IRAK1 (human) = IRAK1 (human) (UniProt P51617)
LRRK2 (human) = LRRK2 (human) (UniProt Q5S007)
LRRK2 (human), sequence (Q5S007 whole entry, looked up): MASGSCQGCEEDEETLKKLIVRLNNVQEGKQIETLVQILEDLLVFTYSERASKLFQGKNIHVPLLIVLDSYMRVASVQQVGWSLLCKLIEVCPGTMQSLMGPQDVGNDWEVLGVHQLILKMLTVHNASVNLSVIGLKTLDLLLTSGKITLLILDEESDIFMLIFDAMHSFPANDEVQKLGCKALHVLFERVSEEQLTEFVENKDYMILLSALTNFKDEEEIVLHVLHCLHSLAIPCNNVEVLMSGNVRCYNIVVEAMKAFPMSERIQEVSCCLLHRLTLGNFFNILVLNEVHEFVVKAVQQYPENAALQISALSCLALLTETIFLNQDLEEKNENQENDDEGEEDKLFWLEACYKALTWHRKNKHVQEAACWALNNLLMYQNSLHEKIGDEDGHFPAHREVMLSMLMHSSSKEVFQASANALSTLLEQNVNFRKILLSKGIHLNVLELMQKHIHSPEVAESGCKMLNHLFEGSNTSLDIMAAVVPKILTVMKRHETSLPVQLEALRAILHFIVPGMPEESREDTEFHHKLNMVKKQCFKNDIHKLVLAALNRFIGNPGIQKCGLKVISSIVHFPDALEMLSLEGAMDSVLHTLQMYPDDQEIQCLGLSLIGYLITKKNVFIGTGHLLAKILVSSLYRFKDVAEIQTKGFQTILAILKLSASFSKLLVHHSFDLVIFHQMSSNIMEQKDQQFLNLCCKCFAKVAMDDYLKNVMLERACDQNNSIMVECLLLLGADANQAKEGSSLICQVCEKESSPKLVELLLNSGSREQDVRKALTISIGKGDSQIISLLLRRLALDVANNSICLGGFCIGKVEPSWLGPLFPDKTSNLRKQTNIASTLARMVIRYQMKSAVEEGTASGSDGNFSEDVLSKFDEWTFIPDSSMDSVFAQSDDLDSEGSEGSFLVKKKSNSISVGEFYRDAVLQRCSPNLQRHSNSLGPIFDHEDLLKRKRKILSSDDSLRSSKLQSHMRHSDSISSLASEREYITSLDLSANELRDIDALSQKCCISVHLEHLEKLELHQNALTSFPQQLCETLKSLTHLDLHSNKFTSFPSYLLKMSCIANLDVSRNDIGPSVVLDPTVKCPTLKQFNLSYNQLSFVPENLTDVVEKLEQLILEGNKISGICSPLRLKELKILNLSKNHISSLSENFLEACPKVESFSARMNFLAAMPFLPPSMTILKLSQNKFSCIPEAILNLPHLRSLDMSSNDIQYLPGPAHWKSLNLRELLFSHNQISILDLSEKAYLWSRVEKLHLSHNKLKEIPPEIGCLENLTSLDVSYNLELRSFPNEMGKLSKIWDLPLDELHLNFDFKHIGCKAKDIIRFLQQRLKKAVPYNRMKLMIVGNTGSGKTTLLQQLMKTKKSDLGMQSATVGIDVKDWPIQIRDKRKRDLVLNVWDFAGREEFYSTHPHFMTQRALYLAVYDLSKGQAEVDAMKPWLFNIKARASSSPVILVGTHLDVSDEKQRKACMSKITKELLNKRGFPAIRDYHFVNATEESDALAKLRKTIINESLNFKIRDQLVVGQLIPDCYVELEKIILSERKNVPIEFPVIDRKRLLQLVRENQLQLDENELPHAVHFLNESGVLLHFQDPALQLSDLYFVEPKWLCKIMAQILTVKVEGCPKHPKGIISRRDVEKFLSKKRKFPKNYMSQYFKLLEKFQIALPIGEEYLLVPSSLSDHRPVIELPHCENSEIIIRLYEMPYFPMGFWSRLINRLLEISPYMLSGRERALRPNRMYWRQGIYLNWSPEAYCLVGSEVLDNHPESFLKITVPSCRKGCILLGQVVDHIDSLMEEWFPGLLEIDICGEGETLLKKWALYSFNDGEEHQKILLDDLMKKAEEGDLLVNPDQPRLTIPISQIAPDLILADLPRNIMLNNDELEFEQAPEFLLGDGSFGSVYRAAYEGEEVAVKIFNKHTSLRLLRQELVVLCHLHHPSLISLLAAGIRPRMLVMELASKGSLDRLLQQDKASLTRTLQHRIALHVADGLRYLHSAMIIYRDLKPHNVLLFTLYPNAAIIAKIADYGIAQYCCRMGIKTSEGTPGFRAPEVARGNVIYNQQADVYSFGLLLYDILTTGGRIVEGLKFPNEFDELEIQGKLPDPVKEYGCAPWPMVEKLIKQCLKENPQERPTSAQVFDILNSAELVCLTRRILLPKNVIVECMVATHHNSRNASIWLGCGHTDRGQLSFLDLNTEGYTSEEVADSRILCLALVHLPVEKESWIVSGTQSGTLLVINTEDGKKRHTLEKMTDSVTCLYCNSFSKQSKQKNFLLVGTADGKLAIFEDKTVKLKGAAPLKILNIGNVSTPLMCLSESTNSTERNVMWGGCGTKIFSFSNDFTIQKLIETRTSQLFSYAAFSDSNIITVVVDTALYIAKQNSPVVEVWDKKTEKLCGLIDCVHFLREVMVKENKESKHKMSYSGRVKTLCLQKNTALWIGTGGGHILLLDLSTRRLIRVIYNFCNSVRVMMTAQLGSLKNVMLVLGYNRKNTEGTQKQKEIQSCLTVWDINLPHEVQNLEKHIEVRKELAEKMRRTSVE

MAK (human) = MAK (human) (UniProt P20794)
MAP2K5 (human) = MAP2K5 (human) (UniProt Q13163)
MATK (human) = MATK (human) (UniProt P42679)
NEK11 (human) = NEK11 (human) (UniProt Q8NG66)
NEK3 (human) = NEK3 (human) (UniProt P51956)
NEK4 (human) = NEK4 (human) (UniProt P51957)
NEK4 (human), sequence (P51957 whole entry, looked up): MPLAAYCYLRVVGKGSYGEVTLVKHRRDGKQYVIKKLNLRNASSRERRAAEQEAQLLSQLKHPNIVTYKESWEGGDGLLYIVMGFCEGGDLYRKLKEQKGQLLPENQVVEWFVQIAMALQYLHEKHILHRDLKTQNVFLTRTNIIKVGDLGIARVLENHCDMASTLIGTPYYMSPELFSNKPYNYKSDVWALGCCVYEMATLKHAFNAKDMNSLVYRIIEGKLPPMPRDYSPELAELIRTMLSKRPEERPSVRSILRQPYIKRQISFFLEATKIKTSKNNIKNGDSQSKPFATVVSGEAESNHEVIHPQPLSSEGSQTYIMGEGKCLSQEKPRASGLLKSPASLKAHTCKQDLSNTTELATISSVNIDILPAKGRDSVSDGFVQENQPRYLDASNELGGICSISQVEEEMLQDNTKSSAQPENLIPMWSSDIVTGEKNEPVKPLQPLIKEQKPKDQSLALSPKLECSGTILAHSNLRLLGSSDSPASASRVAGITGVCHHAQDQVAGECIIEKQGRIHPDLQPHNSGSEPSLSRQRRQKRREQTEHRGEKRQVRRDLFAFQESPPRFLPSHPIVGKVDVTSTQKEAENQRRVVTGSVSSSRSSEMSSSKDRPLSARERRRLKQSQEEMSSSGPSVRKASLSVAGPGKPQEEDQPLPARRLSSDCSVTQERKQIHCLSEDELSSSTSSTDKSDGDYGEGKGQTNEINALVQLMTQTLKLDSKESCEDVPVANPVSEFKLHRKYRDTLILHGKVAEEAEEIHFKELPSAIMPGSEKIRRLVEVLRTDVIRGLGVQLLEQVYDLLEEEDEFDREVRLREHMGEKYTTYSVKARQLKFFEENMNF

OXSR1 (human) = OXSR1 (human) (UniProt O95747)
PI4KB (human) = PI4KB (human) (UniProt Q9UBF8)
PIK3CA (human) = PIK3CA (human) (UniProt P42336)
[2] = tested on: PIK3CA (human), P42336 [E545A]
[3] = tested on: PIK3CA (human), P42336 [E545K]
PIP5K1C (human) = PIP5K1C (human) (UniProt O60331)
PKN3 (M.tuberculosis) = PKN3 (M.tuberculosis) (UniProt Q6P5Z2)
PRPF4B (human) = PRPF4B (human) (UniProt Q13523)
ROCK1 (human) = ROCK1 (human) (UniProt Q13464)
RPS6KB1 (human) = RPS6KB1 (human) (UniProt P23443)
SBK1 (human) = SBK1 (human) (UniProt Q52WX2)
STK32A (human) = STK32A (human) (UniProt Q8WU08)
STK38 (human) = STK38 (human) (UniProt Q15208)
TBK1 (human) = TBK1 (human) (UniProt Q9UHD2)
TIE1 (human) = TIE1 (human) (UniProt P35590)
TRPM6 (human) = TRPM6 (human) (UniProt Q9BX84)

CDKL1 (human), sequence (Q00532 whole entry, looked up): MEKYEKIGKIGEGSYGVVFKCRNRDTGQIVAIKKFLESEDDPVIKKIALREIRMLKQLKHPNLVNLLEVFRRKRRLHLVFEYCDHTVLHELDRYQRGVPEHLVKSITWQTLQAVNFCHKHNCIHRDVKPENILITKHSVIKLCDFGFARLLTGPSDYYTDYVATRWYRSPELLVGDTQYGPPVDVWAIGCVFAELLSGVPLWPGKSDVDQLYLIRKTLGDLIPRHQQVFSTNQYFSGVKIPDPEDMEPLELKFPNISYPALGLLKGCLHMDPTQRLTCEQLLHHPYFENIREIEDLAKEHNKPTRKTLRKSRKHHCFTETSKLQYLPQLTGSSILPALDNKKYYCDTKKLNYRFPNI

| Compound | kinase still bound, per cent of control (CDK4 CCND1 (human)) [%] | kinase still bound, per cent of control (CDKL1 (human)) [%] | kinase still bound, per cent of control (CDKL3 (human)) [%] | kinase still bound, per cent of control (CDKL5 (human)) [%] | kinase still bound, per cent of control (DDR1 (human)) [%] | kinase still bound, per cent of control (DSTYK (human)) [%] | kinase still bound, per cent of control (DYRK2 (human)) [%] | kinase still bound, per cent of control (EIF2AK1 (human)) [%] | kinase still bound, per cent of control (EPHB6 (human)) [%] | kinase still bound, per cent of control (ERBB3 (human)) [%] | kinase still bound, per cent of control (ERN1 (human)) [%] | kinase still bound, per cent of control [1] [%] | kinase still bound, per cent of control (HIPK3 (human)) [%] | kinase still bound, per cent of control (HIPK4 (human)) [%] | kinase still bound, per cent of control (HUNK (human)) [%] | kinase still bound, per cent of control (ICK (human)) [%] | kinase still bound, per cent of control (IRAK1 (human)) [%] | kinase still bound, per cent of control (LRRK2 (human)) [%] | kinase still bound, per cent of control (MAK (human)) [%] | kinase still bound, per cent of control (MAP2K5 (human)) [%] | further results |
| --- | --- | --- | --- | --- | --- | --- | --- | --- | --- | --- | --- | --- | --- | --- | --- | --- | --- | --- | --- | --- | --- |
| Cc1ccc(NC(=O)c2cccc(C(C)(C)C#N)c2)cc1Nc1ccc2ncn(C)c(=O)c2c1 | 61 | 100 | 100 | 93 | 0 | 78 | 100 | 84 | 2.4 | 100 | 86 | 22 | 86 | 92 | 100 | 100 | 75 | 32 | 100 | 0.7 | kinase still bound, per cent of control (MATK (human)): 100%; kinase still bound, per cent of control (NEK11 (human)): 94%; kinase still bound, per cent of control (NEK3 (human)): 57%; kinase still bound, per cent of control (NEK4 (human)): 89%; kinase still bound, per cent of control (OXSR1 (human)): 96%; kinase still bound, per cent of control (PI4KB (human)): 82%; kinase still bound, per cent of control (PIK3CA (human)): 100%; kinase still bound, per cent of control [2]: 89%; kinase still bound, per cent of control [3]: 100%; kinase still bound, per cent of control (PIP5K1C (human)): 75%; kinase still bound, per cent of control (PKN3 (M.tuberculosis)): 100%; kinase still bound, per cent of control (PRPF4B (human)): 100%; kinase still bound, per cent of control (ROCK1 (human)): 92%; kinase still bound, per cent of control (RPS6KB1 (human)): 100%; kinase still bound, per cent of control (SBK1 (human)): 79%; kinase still bound, per cent of control (STK32A (human)): 100%; kinase still bound, per cent of control (STK38 (human)): 100%; kinase still bound, per cent of control (TBK1 (human)): 100%; kinase still bound, per cent of control (TIE1 (human)): 11%; kinase still bound, per cent of control (TRPM6 (human)): 100% |
| CCN1CCN(Cc2ccc(Nc3ncc4c(n3)N(C)c3ccccc3C(=O)N4C)cc2C(F)(F)F)CC1 | 65 | 98 | 100 | 100 | 14 | 7.1 | 97 | 100 | 21 | 75 | 96 | 62 | 76 | 100 | 59 | 80 | 25 | 15 | 100 | 35 | kinase still bound, per cent of control (MATK (human)): 94%; kinase still bound, per cent of control (NEK11 (human)): 100%; kinase still bound, per cent of control (NEK3 (human)): 100%; kinase still bound, per cent of control (NEK4 (human)): 80%; kinase still bound, per cent of control (OXSR1 (human)): 59%; kinase still bound, per cent of control (PI4KB (human)): 100%; kinase still bound, per cent of control (PIK3CA (human)): 25%; kinase still bound, per cent of control [2]: 6.2%; kinase still bound, per cent of control [3]: 24%; kinase still bound, per cent of control (PIP5K1C (human)): 24%; kinase still bound, per cent of control (PKN3 (M.tuberculosis)): 22%; kinase still bound, per cent of control (PRPF4B (human)): 76%; kinase still bound, per cent of control (ROCK1 (human)): 94%; kinase still bound, per cent of control (RPS6KB1 (human)): 48%; kinase still bound, per cent of control (SBK1 (human)): 6.9%; kinase still bound, per cent of control (STK32A (human)): 81%; kinase still bound, per cent of control (STK38 (human)): 95%; kinase still bound, per cent of control (TBK1 (human)): 60%; kinase still bound, per cent of control (TIE1 (human)): 22%; kinase still bound, per cent of control (TRPM6 (human)): 100% |
